Values after ≈ are worked out from the molar mass of the structure shown.
Columns and labels:
[1] = Antiproliferative activity against human Pancreatic cancer cell assessed as cell growth inhibition measured after 24 hrs by CCK-8 assay; format: functional, cell-based
A-375 = assay: Cytotoxicity against human A-375 cells assessed as cell growth inhibition by MTT assay; format: functional, cell-based
HepG2 [2] = assay: Cytotoxicity against human HepG2 cells assessed as cell growth inhibition by MTT assay; format: functional, cell-based
MCF7 [3] = assay: Cytotoxicity against human MCF7 cells assessed as cell growth inhibition by MTT assay; format: functional, cell-based
A549 [4] = assay: Cytotoxicity against human A549 cells assessed as cell growth inhibition by MTT assay; format: functional, cell-based
P388 = assay: Cytotoxicity against mouse P388 cells assessed as cell growth inhibition measured after 72 hrs by MTT assay; format: functional, cell-based; settings: Mus musculus, P388, 72 h
[5] = Antioxidant activity assessed as free radical scavenging activity incubated for 30 mins by microplate reader analysis; format: functional
[6] = Antioxidant activity assessed as free radical scavenging activity incubated for 30 mins under dark condition by microplate reader analysis; format: functional
MCF7 [7] = assay: Cytotoxicity against human MCF7 cells assessed as cell growth inhibition; format: functional, cell-based
HepG2 [8] = assay: Cytotoxicity against human HepG2 cells assessed as cell growth inhibition; format: functional
[9] = Cytotoxicity against human HM02 cells assessed as cell growth inhibition; format: functional
HL-60 [10] = assay: Antiproliferative activity against human HL-60 cells assessed as cell growth inhibition measured after 72 hrs by CCK-8 assay; format: functional, cell-based; settings: HL-60, 72 h
HL-60 [11] = assay: Cytotoxicity against human HL-60 cells assessed as cell growth inhibition measured after 72 hrs by MTT assay; format: functional, cell-based; settings: HL-60, 72 h
A549 [12] = assay: Cytotoxicity against human A549 cells assessed as cell growth inhibition measured after 72 hrs by MTT assay; format: functional, cell-based; settings: A549, 72 h
[13] = Toxicity in brine shrimp assessed as induction of lethality; settings: artemia salina; read-out: LD50 (the source's name)
Influenza A virus = assay: Antiviral activity against Influenza A virus H1N1; format: functional, organism-based
Staphylococcus aureus [14] = assay: Antibacterial activity against Staphylococcus aureus ATCC 25923 assessed as bacterial growth inhibition; format: functional, organism-based
SW-620 = assay: Cytotoxicity against human SW-620 cells assessed as cell growth inhibition by SRB assay; format: functional, cell-based
HCT-116 [15] = assay: Cytotoxicity against human HCT-116 cells assessed as cell growth inhibition by SRB assay; format: functional, cell-based
HCT-116 [16] = assay: Cytotoxicity against human HCT-116 cells assessed as cell growth inhibition by MTT assay; format: functional, cell-based
Candida albicans [17] = assay: Antifungal activity against Candida albicans assessed as fungal growth inhibition measured after 20 hrs; format: functional
Candida albicans [18] = assay: Antifungal activity against Candida albicans ATCC 10231 assessed as fungal growth inhibition by agar dilution method; format: functional
Staphylococcus aureus [19] = assay: Antibacterial activity against methicillin-resistant Staphylococcus aureus assessed as bacterial cell growth inhibition by agar dilution method; format: functional
SGC-7901 = assay: Cytotoxicity against human SGC-7901 cells assessed as cell growth inhibition measured after 48 hrs by MTT assay; format: functional, cell-based; settings: SGC-7901, 48 h
A549 [20] = assay: Cytotoxicity against human A549 cells assessed as cell growth inhibition incubated for 48 hrs by CCK-8 assay; format: functional, cell-based; settings: A549, 48 h
HCT-116 [21] = assay: Cytotoxicity against human HCT-116 cells assessed as cell growth inhibition incubated for 48 hrs by CCK-8 assay; format: functional, cell-based; settings: HCT-116, 48 h
OS-RC-2 = assay: Antiproliferative activity against human OS-RC-2 cells assessed as cell growth inhibition measured after 72 hrs by CCK-8 assay; format: functional, cell-based; settings: OS-RC-2, 72 h

CC[C@H]1[C@@H]2C=C[C@@H]3[C@H]4C/C=C\C(=O)NCCC[C@H]5NC(=O)C(=C5O)C(=O)/C=C/[C@@H]4C[C@@H]3[C@H]2C[C@H]1C
IC50 [1]: 1300 nM

COc1ccc(C[C@@H]2NC(=O)[C@@]34OC(=O)O/C=C/[C@@](C)(O)C(=O)[C@@H](C)C/C=C/[C@H]3[C@@H]3O[C@]3(C)[C@@H](C)[C@@H]24)cc1
IC50 (A-375): 470 nM | IC50 (HepG2 [2]): 470 nM | IC50 (MCF7 [3]): 470 nM | IC50 (A549 [4]): 470 nM

C=CC(C)(C)c1[nH]c2ccccc2c1/C=C1\NC(=O)[C@@]2(C[C@@H](C)C=C[C@@H]2/C=C/c2c(O)cc(CC=C(C)C)c(O)c2C=O)NC1=O
IC50 (P388): 11300 nM

C=CC(C)(C)c1[nH]c2ccccc2c1/C=C1\NC(=O)[C@]2(C[C@H](C)C=C[C@@H]2CCc2c(O)cc(CC=C(C)C)c(O)c2C=O)NC1=O (stereo in doubt; 251)
IC50 (P388): 3430 nM

O=C(NCCCO)c1ccc(O)c(O)c1
IC50 [5]: 4700 nM

CCCC1C(=O)C2CCC3(C)CC(C)C(O3)C(O)/C=C(\C)C(=O)CC1OC2=O (stereo unspecified)
IC50 [6]: 2400 nM

CC(C)CCC[C@H]1CCCCC(=O)O1
GI50 (MCF7 [7]): 0.11 µg/mL (≈ 0.555 µM) | GI50 (HepG2 [8]): 0.11 µg/mL (≈ 0.555 µM) | GI50 [9]: 0.11 µg/mL (≈ 0.555 µM)

COc1nc(C/C=C(\C)C/C=C/C(C)=C/[C@@H](C)/C=C(\C)[C@H](C)O)c(C)c(O)c1OC
IC50 (HL-60 [10]): < 100 nM

CC1(C)C=Cc2c(ccc3c4c(n(O)c23)C(C)(C)[C@H]2C[C@]35CCCN3C(=O)[C@@]2(C4)NC5=O)O1
IC50 (HL-60 [11]): 4450 nM | IC50 (A549 [12]): 1880 nM

COC(C)[C@H]1[C@H]2[C@H](C[C@H]1C)[C@H]1C[C@H]3/C=C/C(=O)C4=C(O)[C@@H](CCCNC(=O)/C=C\C[C@@H]3[C@H]1[C@@H]1O[C@@H]12)NC4=O (stereo partly specified)
IC50 [1]: 1300 nM

CCCCC[C@@H]1Cc2cc(O)cc(O)c2C(=O)O1
LC50 [13]: 36.4 µg/mL (≈ 145 µM)

C/C=C/C=C/CCc1c(O)ccc(O)c1CO
IC50 [6]: 9300 nM

CC[C@H]1[C@H]2[C@H](C[C@H]1C)[C@H]1C[C@H]3/C=C/C(=O)C4=C(O)[C@@H](CCCNC(=O)/C=C\C[C@@H]3[C@H]1[C@@H]1O[C@@H]12)NC4=O
IC50 [1]: 1300 nM

O=C1NC2c3nc4ccccc4c(=O)n3[C@H]1C[C@@]21c2ccccc2N2C(=O)[C@@H]3CCCN3[C@H]21
IC50 (Influenza A virus): 82000 nM

O=C1OC(Cc2ccc(O)cc2)C(c2ccc(O)cc2)C1O (stereo unspecified)
IC50 (Staphylococcus aureus [14]): 17400 nM

COc1cc(C)c2c(O)c3c(cc2c1)[C@@H](O)CCC3=O
IC50 (SW-620): 630 nM | IC50 (HCT-116 [15]): 630 nM

Cc1cccc2cc3c(c(O)c12)C(=O)CC[C@@H]3O
IC50 (SW-620): 630 nM | IC50 (HCT-116 [15]): 630 nM

CN[C@@H]1O[C@H]2C[C@@](C)([C@@H]1OC)n1c3ccccc3c3c4c(c5c6ccccc6n2c5c31)C(=O)NC4
IC50 (HCT-116 [16]): 40 nM

CCCCCC[C@H]1C(=O)O[C@H](C)[C@H](NC(=O)c2cccc(NC=O)c2O)C(=O)O[C@@H](C)[C@@H]1OC(C)=O
MIC (Candida albicans [17]): 5 µg/mL (≈ 9.87 µM)

O=C(NCCCCO)c1ccc(O)c(O)c1
IC50 [5]: 4700 nM

C/N=C(\N)NCCC/C=C/CCCC(C)C1OC(=O)/C(C)=C/C=C/C(C)C(O)CC(O)C(C)C(O)CCC(C)C(O)CC2(O)OC(CC(OC(=O)CC(=O)O)CC(O)CC(O)CC(O)/C(C)=C/C=C/C1C)CC(O)C2O (stereo unspecified)
MIC (Candida albicans [18]): 1.65 µg/mL (≈ 1.52 µM) | MBC (Staphylococcus aureus [19]): 8 µg/mL (≈ 7.39 µM) | MIC (Staphylococcus aureus [19]): 4 µg/mL (≈ 3.7 µM) | IC50 (HCT-116 [16]): 1.81 µg/mL

CC[C@H]1/C=C/C[C@H](CC(C)C)OC(=O)/C(C)=C\[C@@H]2C(=O)NC3=CC(=O)c4c(cc(C)c(O)c4C(=O)CC1)[C@@]32O
IC50 (SGC-7901): 4700 nM

CC(=O)C[C@H](c1nc2ccccc2c(=O)n1[C@@H]1C[C@]2(OC1=O)c1ccccc1N1C(=O)[C@H](C)N[C@H]12)C(C)C
IC50 (Influenza A virus): 82000 nM

CC1(C)C=Cc2c(ccc3c2[N+]([O-])=C2C3=C[C@@]34NC(=O)[C@]5(CCCN5C3=O)C[C@@H]4C2(C)C)O1
IC50 (HL-60 [11]): 3020 nM | IC50 (A549 [12]): 1920 nM

C[C@@H]1O[C@@H](Oc2ccc(-c3cc(=O)c4ccc(O[C@H]5C[C@H](O)[C@H](O)[C@H](C)O5)cc4o3)cc2)C[C@H](O)[C@@H]1O
IC50 (A549 [20]): 13.5 µg/mL (≈ 26.2 µM) | IC50 (HCT-116 [21]): 13.5 µg/mL (≈ 26.2 µM)

CC(=O)OCCCCNC(=O)c1ccc(O)c(O)c1
IC50 [5]: 4700 nM

CCOC(=O)[C@]1(Cc2ccc(O)c(CC3OC3(C)C)c2)OC(=O)C(O)C1c1ccc(O)cc1 (stereo partly specified)
IC50 (Staphylococcus aureus [14]): 21300 nM

C/C=C(\C)[C@H](O)[C@H](C)/C=C(/C=C/C/C(C)=C/Cc1nc(OC)c(OC)c(O)c1C)CC
IC50 (OS-RC-2): 4500 nM

From ChEMBL document CHEMBL5107956, “Natural products from mangrove sediments-derived microbes: Structural diversity, bioactivities, biosynthesis, and total synthesis” (Eur J Med Chem, 2022)
